For data set [1], the system named is Staphylococcus aureus. As to the kind of experiment: Antimicrobial activity against Staphylococcus aureus ATCC 25923 assessed as reduction in microbial colony forming unit at 2 times MIC incubated for 1 to 4 hrs by time-kill kinetics based analysis. To be noted: time 1-4 hrs. Type of data set: functional, organism-based.
In data set [2] the test system is Escherichia coli. In words: Antimicrobial activity against Escherichia coli ATCC 25922 assessed as reduction in microbial colony forming unit at 2 times MIC incubated for 1 to 4 hrs by time-kill kinetics based analysis. Particulars: time 1-4 hrs. Type of data set: functional, organism-based.
Data set [3] has as its system Staphylococcus aureus. In words: Antimicrobial activity against Methicillin-resistant Staphylococcus aureus assessed as reduction in microbial colony forming unit at 2 times MIC incubated for 1 to 4 hrs by time-kill kinetics based analysis. Type of data set: functional, organism-based. Particulars: time 1-4 hrs.
The subject of data set [4] is Escherichia coli. As to the kind of experiment: Antimicrobial activity against Carbapenem-resistant Escherichia coli assessed as reduction in microbial colony forming unit at 2 times MIC incubated for 1 to 4 hrs by time-kill kinetics based analysis. Type of data set: functional, organism-based. Particulars: time 1-4 hrs.
In data set [5] the test system is Candida albicans. In words: Antimicrobial activity against Candida albicans ATCC 2002 assessed as reduction in microbial colony forming unit at 2 times MIC incubated for 1 to 4 hrs by time-kill kinetics based analysis. Particulars: time 1-4 hrs. Type of data set: functional, organism-based.
For data set [6], the system named is Staphylococcus aureus. As to the kind of experiment: Antimicrobial activity against Staphylococcus aureus ATCC 25923 assessed as reduction in metabolic activity at 2 times MIC incubated for 1 to 4 hrs by CCK-8 assay. Type of data set: functional, organism-based. To be noted: time 1-4 hrs. (In general: Formazan colour is commonly taken as a measure of viable cells.)

Data set [7] concerns Escherichia coli. As to the kind of experiment: Antimicrobial activity against Escherichia coli ATCC 25922 assessed as reduction in metabolic activity at 2 times MIC incubated for 1 to 4 hrs by CCK-8 assay. Type of data set: functional, organism-based. Particulars: time 1-4 hrs.
Data set [8] has as its system Staphylococcus aureus. In words: Antimicrobial activity against Methicillin-resistant Staphylococcus aureus assessed as reduction in metabolic activity at 2 times MIC incubated for 1 to 4 hrs by CCK-8 assay. Type of data set: functional, organism-based. To be noted: time 1-4 hrs.
In data set [9] the test system is Escherichia coli. As to the kind of experiment: Antimicrobial activity against Carbapenem-resistant Escherichia coli assessed as reduction in metabolic activity at 2 times MIC incubated for 1 to 4 hrs by CCK-8 assay. Type of data set: functional, organism-based. Particulars: time 1-4 hrs.
Data set [10] has as its system Candida albicans. In words: Antimicrobial activity against Candida albicans ATCC 2002 assessed as reduction in metabolic activity at 2 times MIC incubated for 1 to 4 hrs by CCK-8 assay. Type of data set: functional, organism-based. To be noted: time 1-4 hrs.
A further data set relates to Neutrophil. In words: Cytotoxicity against mouse bone marrow derived neutrophil at <= 200 ug/ml incubated for 24 hrs by CCK-8 assay. Type of data set: toxicity, cell-based. Particulars: dose < 200 µg/ml.
The test system of data set [11] is Peritoneal macrophage. As to the kind of experiment: Cytotoxicity against mouse Peritoneal macrophage at <= 200 ug/ml incubated for 24 hrs by CCK-8 assay. Type of data set: toxicity, cell-based. Particulars: dose < 200 µg/ml.
The test system of data set [12] is Erythrocyte. As to the kind of experiment: Hemolytic activity in rabbit erythrocytes at 25 to 200 ug/ml incubated for 30 mins by absorbance based analysis. Type of data set: toxicity, cell-based, Oryctolagus cuniculus. Particulars: 0.5 h, dose 25-200 µg/ml.
In data set [13] the test system is Erythrocyte. In words: Hemolytic activity in mouse erythrocytes at 25 to 200 ug/ml incubated for 30 mins by absorbance based analysis. Type of data set: toxicity, cell-based. Particulars: 0.5 h, dose 25-200 µg/ml.
Data set [14] in a line: Acute toxicity in C57BL/6 mouse assessed as change in ALT level in serum at 10 mg/kg,ip administration measured after 24 hrs. Type of data set: organism-based. To be noted: in vivo.
Data set [15] in a line: Acute toxicity in C57BL/6 mouse assessed as change in ALT level in serum at 30 mg/kg,ip administration measured after 24 hrs. Type of data set: organism-based. To be noted: in vivo.
Data set [16] is described as follows: Acute toxicity in C57BL/6 mouse assessed as change in creatinine level in serum at 10 mg/kg,ip administration measured after 24 hrs. Particulars: in vivo. Type of data set: organism-based.
Data set [17] can be described thus: Acute toxicity in C57BL/6 mouse assessed as change in creatinine level in serum at 30 mg/kg,ip administration measured after 24 hrs. Type of data set: organism-based. Particulars: in vivo.
Data set [18] deals with Peritoneal macrophage cell. As to the kind of experiment: Induction of phagocytosis in mouse Peritoneal macrophage cultured with Methicillin-resistant Staphylococcus aureus assessed as number of surviving engulfed bacteria at 25 ug/ml incubated for 1.5 hrs followed by bacterial exposure for 1 hr by plate counting method. Type of data set: functional. Particulars: dose 25 µg/ml; time 2.5 hrs.

Data set [19] concerns Peritoneal macrophage cell. In words: Induction of phagocytosis in mouse Peritoneal macrophage cultured with Methicillin-resistant Staphylococcus aureus assessed as number of surviving engulfed bacteria at 50 ug/ml incubated for 1.5 hrs followed by bacterial exposure for 1 hr by plate counting method. Type of data set: functional. Particulars: dose 50 µg/ml; time 2.5 hrs.

Data set [20] deals with Peritoneal macrophage cell. As to the kind of experiment: Induction of phagocytosis in mouse Peritoneal macrophage cultured with Methicillin-resistant Staphylococcus aureus assessed as number of surviving engulfed bacteria at 100 ug/ml incubated for 1.5 hrs followed by bacterial exposure for 1 hr by plate counting method. Type of data set: functional. Particulars: dose 100 µg/ml; time 2.5 hrs.

Data set [21] relates to Peritoneal macrophage. As to the kind of experiment: Induction of phagocytosis in mouse Peritoneal macrophage cultured with Carbapenem-resistant Escherichia coli assessed as number of surviving engulfed bacteria at 25 ug/ml incubated for 1.5 hrs followed by bacterial exposure for 1 hr by plate counting method. Type of data set: functional. To be noted: dose 25 µg/ml; time 2.5 hrs.

The subject of data set [22] is Peritoneal macrophage cell. As to the kind of experiment: Induction of phagocytosis in mouse Peritoneal macrophage cultured with Carbapenem-resistant Escherichia coli assessed as number of surviving engulfed bacteria at 50 ug/ml incubated for 1.5 hrs followed by bacterial exposure for 1 hr by plate counting method. Type of data set: functional. Particulars: dose 50 µg/ml; time 2.5 hrs.

In data set [23] the test system is Peritoneal macrophage cell. In words: Induction of phagocytosis in mouse Peritoneal macrophage cultured with Carbapenem-resistant Escherichia coli assessed as number of surviving engulfed bacteria at 100 ug/ml incubated for 1.5 hrs followed by bacterial exposure for 1 hr by plate counting method. Type of data set: functional. To be noted: dose 100 µg/ml; time 2.5 hrs.

Data set [24] concerns Peritoneal macrophage cell. In words: Induction of chemotaxis in mouse Peritoneal macrophage assessed as upregulation of CXCL1 production at 100 ug/ml preincubated with PTX followed by compound addition by ELISA. Type of data set: functional. To be noted: dose 100 µg/ml. A general note: ELISA stands for enzyme-linked immunosorbent assay.
Data set [25] has as its system Peritoneal macrophage. In words: Induction of chemotaxis in mouse Peritoneal macrophage assessed as upregulation of CXCL2 production at 100 ug/ml preincubated with PTX followed by compound addition by ELISA. Type of data set: functional. To be noted: dose 100 µg/ml.
Data set [26] has as its system Peritoneal macrophage. As to the kind of experiment: Induction of chemotaxis in mouse Peritoneal macrophage assessed as upregulation of MCP-1 production at 100 ug/ml preincubated with PTX followed by compound addition by ELISA. Type of data set: functional. To be noted: dose 100 µg/ml.
The next data set deals with Mus musculus. In words: Antithrombotic activity in FeCl3-induced carotid arterial thrombosis C57BL/6 mouse model assessed as increase in blood flow by measuring time to occlusion at 10 mg/kg,SC administration observed for 30 mins by laser speckle perfusion imaging analysis. Type of data set: functional. Particulars: 0.5 h.
Data set [27] has as its system Platelet. In words: Anti-platelet aggregation activity in human Platelet rich plasma assessed as inhibition of ADP-induced aggregation at 100 ug/ml preincubated with compound for 5 mins followed by ADP addition by platelet aggregometry relative to control. To be noted: dose 100 µg/ml. More on the design: scale not given: the % may be the effect or the level left. Type of data set: functional.

For data set [28], the system named is Platelet. In words: Anti-platelet aggregation activity in human Platelet rich plasma assessed as inhibition of collagen-induced aggregation at 100 ug/ml preincubated with compound for 5 mins followed by collagen addition by platelet aggregometry relative to control. More on the design: scale not given: the % may be the effect or the level left. Type of data set: functional. Particulars: dose 100 µg/ml.

The test system of data set [29] is Platelet. As to the kind of experiment: Anti-platelet aggregation activity in human Platelet rich plasma assessed as inhibition of PMA-induced aggregation at 100 ug/ml preincubated with compound for 5 mins followed by PMA addition by platelet aggregometry relative to control. Type of data set: functional. Details: scale not given: the % may be the effect or the level left. Particulars: dose 100 µg/ml.

Active and inactive are the calls of the source. No cut-off for these calls is given here.

From ChEMBL document CHEMBL5543174, “A Nonbactericidal Anionic Antimicrobial Peptide Provides Prophylactic and Therapeutic Efficacies against Bacterial Infections in Mice by Immunomodulatory-Antithrombotic Duality” (J Med Chem, 2024) come the findings set out here.

For the compound `CC[C@H](C)[C@H](NC(=O)[C@H](CCCCN)NC(=O)[C@H](CCC(=O)O)NC(=O)[C@H](CCCCN)NC(=O)[C@H](CO)NC(=O)[C@H](CCCCN)NC(=O)[C@H](CCCNC(=N)N)NC(=O)[C@H](Cc1ccccc1)NC(=O)[C@H](Cc1ccccc1)NC(=O)[C@H](CC(=O)O)NC(=O)CNC(=O)[C@H](CC(C)C)NC(=O)[C@@H](N)CC(C)C)C(=O)NCC(=O)N[C@@H](CCCCN)C(=O)N[C@@H](CCC(=O)O)C(=O)N[C@@H](Cc1ccccc1)C(=O)N[C@@H](CCCCN)C(=O)N[C@@H](CCCNC(=N)N)C(=O)N[C@H](C(=O)N[C@H](C(=O)N[C@@H](CCC(N)=O)C(=O)N[C@@H](CCCNC(=N)N)C(=O)N[C@H](C(=O)N[C@@H](CCCCN)C(=O)N[C@@H](CC(=O)O)C(=O)N[C@@H](Cc1ccccc1)C(=O)N[C@@H](CC(C)C)C(=O)N[C@@H](CCCNC(=N)N)C(=O)N[C@@H](CC(N)=O)C(=O)N[C@@H](CC(C)C)C(=O)N[C@H](C(=O)N1CCC[C@H]1C(=O)N[C@@H](CCCNC(=N)N)C(=O)N[C@H](C(=O)N[C@@H](CCC(=O)O)C(=O)N[C@@H](CO)C(=O)O)[C@@H](C)O)C(C)C)[C@@H](C)CC)C(C)C)[C@@H](C)CC`, the result with Staphylococcus aureus [1], in the data set on Escherichia coli [2], in the data set with Staphylococcus aureus [3], in the data set with Escherichia coli [4], in the data set on Candida albicans [5] and in the data set on Staphylococcus aureus [6] was Active. Moreover, the result in the data set on Escherichia coli [7], with Staphylococcus aureus [8], in the data set on Escherichia coli [9] and with Candida albicans [10] was Active.
As to `CC[C@H](C)[C@H](NC(=O)[C@@H]1CSSC[C@H](NC(=O)[C@H](CCC(=O)O)NC(=O)[C@@H](NC(=O)[C@H](CCCCN)NC(=O)[C@H](Cc2c[nH]cn2)NC(=O)[C@@H](NC(=O)[C@H](CCCCN)NC(=O)[C@H](CCC(=O)O)NC(=O)[C@H](C)NC(=O)[C@H](CCC(=O)O)NC(=O)[C@H](CCC(=O)O)NC(=O)[C@H](CCC(=O)O)NC(=O)[C@H](C)N)[C@@H](C)O)[C@@H](C)O)C(=O)N[C@@H](CC(C)C)C(=O)N[C@@H](CCC(=O)O)C(=O)N1)C(=O)N[C@@H](Cc1ccccc1)C(=O)N[C@H](C(=O)N[C@@H](CC(C)C)C(=O)N[C@@H](CC(C)C)C(=O)N1CCC[C@H]1C(=O)N1CCC[C@H]1C(=O)N[C@@H](C)C(=O)O)[C@@H](C)O` [listing 1 of 2 here], the Activity entry (with Neutrophil; in the data set with Peritoneal macrophage [11]; with Erythrocyte [12]; in the data set with Erythrocyte [13]; in data set [14]; in [15]) was “Non-Toxic” throughout. Also, the Activity entry in data set [16] and in data set [17] was “Non-Toxic” each time.
On to `C[C@@H](O)[C@H]1C(=O)N2C(C(=O)O)=C(S[C@@H]3CN[C@H](C(=O)N(C)C)C3)[C@H](C)[C@H]12`, for which the result in the data set with Staphylococcus aureus [1], in the data set with Escherichia coli [2], in the data set with Staphylococcus aureus [3], with Escherichia coli [4], in the data set on Candida albicans [5] and with Staphylococcus aureus [6] was Active. Besides, the outcome in the data set on Escherichia coli [7], with Staphylococcus aureus [8], in the data set on Escherichia coli [9] and in the data set with Candida albicans [10] was Active.
In the case of `CC[C@H](C)[C@H](NC(=O)[C@@H]1CSSC[C@H](NC(=O)[C@H](CCC(=O)O)NC(=O)[C@@H](NC(=O)[C@H](CCCCN)NC(=O)[C@H](Cc2c[nH]cn2)NC(=O)[C@@H](NC(=O)[C@H](CCCCN)NC(=O)[C@H](CCC(=O)O)NC(=O)[C@H](C)NC(=O)[C@H](CCC(=O)O)NC(=O)[C@H](CCC(=O)O)NC(=O)[C@H](CCC(=O)O)NC(=O)[C@H](C)N)[C@@H](C)O)[C@@H](C)O)C(=O)N[C@@H](CC(C)C)C(=O)N[C@@H](CCC(=O)O)C(=O)N1)C(=O)N[C@@H](Cc1ccccc1)C(=O)N[C@H](C(=O)N[C@@H](CC(C)C)C(=O)N[C@@H](CC(C)C)C(=O)N1CCC[C@H]1C(=O)N1CCC[C@H]1C(=O)N[C@@H](C)C(=O)O)[C@@H](C)O` [listing 2 of 2 here], the Activity in data set [18] was found to be 793; in data set [19] it was 532; in data set [20] it was 244; in the data set on Peritoneal macrophage [21] it was 279; in data set [22], 245; in data set [23] it was 234. For the same compound, the Activity in [24] is 56.8%; in the data set on Peritoneal macrophage [25], 63.2%; in the data set with Peritoneal macrophage [26] it was 52.8%; with Platelet [27] it was 54.2%; with Platelet [28] it was 57.72%; in the data set with Platelet [29], 78.01%. For the same compound, the Time in the data set with Mus musculus came to 28.5 min.
